Measurements: patent US12637661B2, “Methods of enhancing stem cell differentiation into beta cells” (Vertex Pharmaceuticals Incorporated, priority 2018, dated 2026)

Experiments:
[1] = tested on: stage 5 cells of hESC line (D97, D114, and D241 HUES8); experiment: Stage 5 of directed differentiation of hESC line treated with EZH2 inhibitor, HDAC inhibitor or combination; assay type: cell-based, human; conditions: for percentage of pre-SC-β cells (C-PEP+, NKX6-1+): stage 5, FIG. 15; for performance compared with other inhibitors of the same class: stage 5, FIGS. 14 and 15; for proportion of all β cell types: stage 5, FIG. 14
Procedure: The mRNA expression of NGN3 was investigated in each steps of directed differentiation described herein (FIG. 5), and it was observed that cells expressed NGN3 to initiate SC-β cell differentiation (FIG. 7). The effects of inhibition of histone methylation and deacetylation on SC-β cell differentiation were investigated (FIG. 6). Stage 5 of the directed differentiation as described herein (FIGS. 5-6) in hESC line (D97, D114, and […] HUES8) was treated with an EZH2 inhibitor (DZNep), HDAC inhibitor (KD5170), and a combination thereof (FIG. 6). Candidate inhibitor screening was performed as described in FIG. 18. Inhibition of EZH2 or HDAC in stage 5 (D97 HUES8) increased endocrine cells and SC-β cells (FIG. 8). […] SC-β cells comprised 35.4% at the end of stage 5 with DZNep and KD5170. […] Combined inhibition of EZH2 and HDAC in stage 5 was tested as described in FIG. 17. Combined inhibition of EZH2 and HDAC in stage 5 ([…] HUES8) increased Neorogenin3+ progenitors in stage 5 (FIGS. 12-13). Combined inhibition of EZH2 and HDAC in stage 5 increased NKX6.1+ progenitor cells (FIG. 16).

EZH2 = EZH2 (Homo sapiens, UniProt Q15910); conditions: cited from earlier work
Sequence of EZH2 (Q15910 whole entry, species assumed): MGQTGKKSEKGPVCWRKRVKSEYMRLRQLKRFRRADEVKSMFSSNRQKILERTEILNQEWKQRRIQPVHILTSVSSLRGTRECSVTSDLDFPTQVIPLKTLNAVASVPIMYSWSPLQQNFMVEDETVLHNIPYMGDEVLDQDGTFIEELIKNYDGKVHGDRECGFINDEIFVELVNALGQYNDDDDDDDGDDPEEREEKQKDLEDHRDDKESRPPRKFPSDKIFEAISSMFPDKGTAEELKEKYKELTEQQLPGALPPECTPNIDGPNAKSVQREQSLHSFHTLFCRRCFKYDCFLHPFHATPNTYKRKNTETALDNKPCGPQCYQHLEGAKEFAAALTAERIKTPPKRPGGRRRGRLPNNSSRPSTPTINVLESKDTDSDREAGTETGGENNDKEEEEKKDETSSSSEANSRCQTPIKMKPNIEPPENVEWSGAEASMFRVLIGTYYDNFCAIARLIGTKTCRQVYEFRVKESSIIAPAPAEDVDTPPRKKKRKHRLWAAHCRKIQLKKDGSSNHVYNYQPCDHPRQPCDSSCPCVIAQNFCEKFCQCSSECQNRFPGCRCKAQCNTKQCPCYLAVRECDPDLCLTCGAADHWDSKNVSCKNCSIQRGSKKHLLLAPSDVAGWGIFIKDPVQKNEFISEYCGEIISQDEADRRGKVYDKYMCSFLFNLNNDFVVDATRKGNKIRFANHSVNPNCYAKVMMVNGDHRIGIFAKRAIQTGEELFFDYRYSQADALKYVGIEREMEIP
Sequence of EZH2 (O75530 whole entry partner, species assumed): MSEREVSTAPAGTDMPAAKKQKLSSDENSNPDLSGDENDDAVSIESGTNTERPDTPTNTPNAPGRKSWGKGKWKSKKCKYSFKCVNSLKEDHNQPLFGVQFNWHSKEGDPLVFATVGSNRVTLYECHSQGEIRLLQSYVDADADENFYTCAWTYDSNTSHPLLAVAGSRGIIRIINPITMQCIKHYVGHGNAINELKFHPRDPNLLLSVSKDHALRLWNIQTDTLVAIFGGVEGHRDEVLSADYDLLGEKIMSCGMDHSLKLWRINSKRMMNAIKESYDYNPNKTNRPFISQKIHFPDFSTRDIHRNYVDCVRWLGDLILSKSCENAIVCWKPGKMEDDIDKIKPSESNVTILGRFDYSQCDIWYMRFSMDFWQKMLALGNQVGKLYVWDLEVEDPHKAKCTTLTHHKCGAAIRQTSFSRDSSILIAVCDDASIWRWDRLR
Sequence of EZH2 (Q15022 whole entry partner, species assumed): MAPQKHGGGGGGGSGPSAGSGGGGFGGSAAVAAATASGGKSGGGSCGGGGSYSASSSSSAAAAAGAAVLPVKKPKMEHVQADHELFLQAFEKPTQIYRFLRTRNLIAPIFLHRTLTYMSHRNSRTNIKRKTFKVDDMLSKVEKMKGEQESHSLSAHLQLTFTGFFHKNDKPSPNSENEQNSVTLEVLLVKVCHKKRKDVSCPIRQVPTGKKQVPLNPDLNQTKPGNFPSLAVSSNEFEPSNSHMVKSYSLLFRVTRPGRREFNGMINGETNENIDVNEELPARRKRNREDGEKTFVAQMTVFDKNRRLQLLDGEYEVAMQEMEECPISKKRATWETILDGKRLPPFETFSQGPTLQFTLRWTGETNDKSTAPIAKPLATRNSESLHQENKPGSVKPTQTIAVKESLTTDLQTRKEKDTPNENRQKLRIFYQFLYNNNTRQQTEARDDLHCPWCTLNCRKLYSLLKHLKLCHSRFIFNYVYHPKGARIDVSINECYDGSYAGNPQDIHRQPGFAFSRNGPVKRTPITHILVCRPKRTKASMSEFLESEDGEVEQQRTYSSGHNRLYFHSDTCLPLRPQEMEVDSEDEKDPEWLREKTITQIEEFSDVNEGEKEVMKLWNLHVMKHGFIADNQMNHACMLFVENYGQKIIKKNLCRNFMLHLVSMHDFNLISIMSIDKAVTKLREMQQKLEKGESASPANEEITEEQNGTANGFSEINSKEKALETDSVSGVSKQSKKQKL

**Q.** Which results are given for `Nc1nccc2c1ncn2[C@@H]1C=C(CO)[C@@H](O)[C@H]1O` [DZNep, 3-deazaneplanocin A]?
**A.** viability ([1]; 1 μM throughout stage 5): without affecting viability; (VMAT1+INS−) EC population removed ([1]; 1 μM throughout stage 5, FIGS. 19-21): more than half; proportion / differentiation of endocrine cells (CHGA+) ([1]; stage 5): increased; percentage of pre-SC-β cells (C-PEP+, NKX6-1+) [1]: increased; progenitors cells (NKX6-1+) ([1]; stage 5, FIG. 16): increased; VMAT1+INS− EC population ([1]; stage 5, FIG. 19): specific decrease; NKX6.1-ChromA+ PH cells ([1]; stage 5, FIG. 20): concomitant increase; NKX6.1+INS+ SC-β cell population ([1]; stage 5, FIG. 21): unaffected; performance compared with other inhibitors of the same class [1]: outperforms other EZH2 inhibitors; selectivity / specificity for EZH2 (in words) (EZH2): may not be specific to EZH2

**Q.** For `CC[C@H](C)n1cc(C)c2c(C(=O)NCc3c(C)cc(C)[nH]c3=O)cc(-c3ccc(N4CCNCC4)nc3)cc21` [GSK126], which “proportion of all β cell types” value [1] is on record?
**A.** did not increase

**Q.** For `CC(=O)SCC(=O)c1ccc(NS(=O)(=O)c2ccc(OCCCN(C)C)cc2)nc1` [KD5170], which “percentage of pre-SC-β cells (C-PEP+, NKX6-1+)” value (“percentage of pre-SC-β cells” for short) [1] is on record?
**A.** increased

**Q.** What about the “performance compared with other inhibitors of the same class” value [1] of the same compound?
**A.** outperforms other HDAC inhibitors

**Q.** Which “percentage of pre-SC-β cells” value [1] does the source give for `O=C(CCCCCCC(=O)Nc1ccccc1)NO` [SAHA] here?
**A.** did not increase

**Q.** Which “percentage of pre-SC-β cells” value [1] does the source give for `CC(/C=C/C(=O)NO)=C\[C@@H](C)C(=O)c1ccc(N(C)C)cc1` [TSA] here?
**A.** did not increase

**Q.** With `CCCc1cc(C)[nH]c(=O)c1CNC(=O)c1cc(-c2ccc(N3CCN(C(C)C)CC3)nc2)cc2c1cnn2C(C)C` [UNC1999] as the compound, how does the “proportion of all β cell types” value [1] read?
**A.** did not increase

**Q.** What about the “selectivity / specificity for EZH2 (in words)” value (EZH2) of the same compound?
**A.** less selective

**Q.** For `CCCC(=O)[O-].[Na+]` [sodium butyrate], which “percentage of pre-SC-β cells” value [1] is on record?
**A.** did not increase
